# Values quoted from earlier work in patent US20090075956A1 (priority 2005, published 2009).
# Where a name gives a salt, the structure may show the parent alone.
solubility in alcohol (alcohol),solubility in ether (ether),Compound,"solubility in organic solvents (organic solvents such as ethanol, ether and chloroform)",solubility in water
,,"O=[N+]([O-])O[C@H]1CO[C@H]2[C@@H]1OC[C@H]2O[N+](=O)[O-] [Diluted isosorbide dinitrate, 1,4,3,6-dianhydro-D-glucitol-2,5-dinitrate]",freely soluble,sparingly soluble
slightly soluble,very slightly soluble,"NNc1nncc2ccccc12 [Hydralazine hydrochloride, hydralazine hydrochloride]",,soluble
